Assay [1] concerns HCT-116 cells. Briefly: HCT-116 Cell Proliferation Assay. In kind it is cell-based. Particulars: Homo sapiens, HCT-116, HCT-116 cells; Table 2; read-out: Inhibition of cell proliferation in HCT-116 (IC50 class). In short, it runs like this:
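HCT-116 cells, 375/well in McCoy's 5A with 10% FBS, exposed to serial compound dilutions in triplicate for 67 to 72 hours at 37 °C. Viability read by resazurin fluorescence (ex 540/em 600 nm) after a further 4 to 5 h; IC50 values calculated.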

Assay [2] has as its system Pa16c cells. Briefly: Pa16c Cell Proliferation Assay. In kind it is cell-based. As to conditions: Table 2, read-out: Inhibition of cell proliferation in Pa16c (IC50 class). In short, it runs like this:
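Mouse Pa16c cells, 750/well in DMEM with 10% FBS, exposed to serially diluted compound in triplicate for 67 to 72 h at 37° C. Viability read by resazurin reduction over a further 18 to 24 h (ex 540/em 600 nm). IC50 calculated from the dose-response.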

Assay [3] addresses T1, C-Raf kinase (SEQ ID NO: 2) (Homo sapiens, UniProt P04049, Y340D/Y341D).
T1 construct: C-Raf residues 306-end; Y340D, Y341D with; GST (N); purchased Sigma
Briefly: Biochemical Assay for C-Raf (coupled pyruvate kinase/lactate dehydrogenase assay). Particulars: 1 mM ATP; read-out: CRAF (inhibition of biochemical activity, IC50).

Assay [4] concerns MiaPaca-2 cells. Briefly: MiaPaca-2 Cell Proliferation Assay. The assay is classed as cell-based. Particulars: Homo sapiens, MIA PaCa-2, MiaPaca-2 cells; Table 2; read-out: Inhibition of cell proliferation in MiaPaca-2 (IC50 class). In short, it runs like this: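 Viability was read as resazurin fluorescence (540 nm excitation, 600 nm emission) after 5–6 h with dye. Compounds were tested as serial dilutions in triplicate, with IC50 derived from the dose–response.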

Assay [5] concerns the target T2, B-Raf kinase (SEQ ID NO: 1) (Homo sapiens, UniProt P15056).
T2 construct: GST (N); purchased Sigma
Briefly: Biochemical Assay for B-Raf (coupled pyruvate kinase/lactate dehydrogenase assay). Particulars: 1 mM ATP; read-out: BRAF (inhibition of biochemical activity, IC50).

In assay [6] the test system is HPAF-II cells. Briefly: HPAF-II Cell Proliferation Assay. In kind it is cell-based. As to conditions: Homo sapiens, HPAF-II, HPAF-II cells; Table 2; read-out: Inhibition of cell proliferation in HPAF-II (IC50 class). The gist of the method:
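HPAF-II cells (750/well) in complete MEM with 10% FBS were exposed to serially diluted compound in triplicate for 115–120 h at 37 °C, 5% CO2. Resazurin was then added for 18–24 h more; fluorescence (ex 540/em 600 nm) gave IC50.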

We go through 24 molecules from patent US20260226084A1, “DUAL RAF AND TUBULIN INHIBITORS AND METHODS OF USE THEREOF” (Deciphera Pharmaceuticals, LLC, priority 2023, published 2026).

T1 sequence (P04049 307-648 Y340D/Y341D): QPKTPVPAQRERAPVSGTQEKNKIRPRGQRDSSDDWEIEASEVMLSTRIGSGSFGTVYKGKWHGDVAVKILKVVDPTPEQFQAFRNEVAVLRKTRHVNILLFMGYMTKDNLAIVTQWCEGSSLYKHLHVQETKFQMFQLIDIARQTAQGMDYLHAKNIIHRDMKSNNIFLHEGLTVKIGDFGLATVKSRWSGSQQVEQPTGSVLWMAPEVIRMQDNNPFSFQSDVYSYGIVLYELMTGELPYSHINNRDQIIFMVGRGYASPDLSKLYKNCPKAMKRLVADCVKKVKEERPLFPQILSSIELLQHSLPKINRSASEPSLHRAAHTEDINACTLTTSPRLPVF
T2 sequence (P15056 416-766): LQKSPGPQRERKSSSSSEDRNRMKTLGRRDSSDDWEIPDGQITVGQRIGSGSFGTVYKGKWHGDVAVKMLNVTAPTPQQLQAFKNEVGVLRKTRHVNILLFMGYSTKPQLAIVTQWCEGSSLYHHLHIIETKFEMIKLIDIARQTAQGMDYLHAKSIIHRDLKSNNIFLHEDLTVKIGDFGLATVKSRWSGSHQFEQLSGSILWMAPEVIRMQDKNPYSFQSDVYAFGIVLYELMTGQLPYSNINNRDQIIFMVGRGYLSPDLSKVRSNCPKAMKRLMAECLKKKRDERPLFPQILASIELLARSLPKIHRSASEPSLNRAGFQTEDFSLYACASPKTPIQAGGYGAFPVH

As for `Cc1ccc(NC(=O)c2cc(C(F)(F)F)cnn2)cc1-c1ccnc(-c2ccnc(NC(=O)C(F)(F)F)c2)c1` [Example 106], the IC50 is less than 100 nM in assay [1]; less than 100 nM in assay [2]; less than 100 nM in assay [3]; less than 100 nM in assay [4]; 100 to 500 nM in assay [5]; less than 100 nM in assay [6].
On to `CNCC(=O)Nc1cc(-c2cc(-c3cc(NC(=O)c4cc(C5CC5)cnn4)ccc3C)ccn2)ccn1` [Example 107], for which the IC50 in assay [1] was 100 to 500 nM; in assay [2], 100 to 500 nM; in assay [3] it was less than 100 nM; in assay [4] it was 100 to 500 nM; in assay [5] it was less than 100 nM; in assay [6] it was 100 to 500 nM.
As for `Cc1ccc(NC(=O)c2cncc(C(C)(C)C#N)c2)cc1-c1cncc(-c2ccnc(NC(=O)C3CC3)c2)n1` [Example 108], the IC50 in assay [1] was less than 100 nM; in assay [2] it was 1000 to 10000 nM; in assay [3] it was less than 100 nM; in assay [4] it was 100 to 500 nM; in assay [5] it was less than 100 nM; in assay [6] it was 100 to 500 nM.
`Cc1ccc(NC(=O)c2cncc(C(C)(F)F)c2)cc1-c1cncc(-c2cc(NC(=O)C3CC3)ncn2)c1` [Example 109]: the IC50 was less than 100 nM in assay [1]; 1000 to 10000 nM in assay [2]; less than 100 nM in assay [3]; 100 to 500 nM in assay [4]; less than 100 nM in assay [5]; 100 to 500 nM in assay [6].
For `Cc1ccc(NC(=O)c2cc(C(F)(F)F)cnn2)cc1-c1ccnc(-c2ccnc(NC=O)c2)c1` [Example 110], the IC50 in assay [1], in assay [2], in assay [3], in assay [4], in assay [5] and in assay [6] was less than 100 nM throughout.
Consider `Cc1ccc(NC(=O)c2cc(P(C)(C)=O)cnn2)cc1-c1ccnc(-c2ccnc(NC(=O)C3CC3)c2)c1` [Example 111], for which the IC50 was 1000 to 10000 nM in assay [1]; 1000 to 10000 nM in assay [2]; less than 100 nM in assay [3]; 1000 to 10000 nM in assay [4]; less than 100 nM in assay [5]; 1000 to 10000 nM in assay [6].
With `CNCC(=O)Nc1cc(-c2cc(-c3cc(NC(=O)c4cc(C(C)(F)F)cnn4)ccc3C)ccn2)ccn1` [Example 112], the IC50 in assay [1] is 100 to 500 nM; in assay [2], 100 to 500 nM; in assay [3], less than 100 nM; in assay [4], 100 to 500 nM; in assay [5], less than 100 nM; in assay [6] it was 100 to 500 nM.
For the molecule `Cc1ccc(NC(=O)c2cc(C(F)(F)F)cnn2)cc1-c1cc(NCCO)nc(-c2ccnc(NC(=O)C3CC3)c2)c1` [Example 113], the IC50 in assay [1], in assay [2], in assay [3], in assay [4], in assay [5] and in assay [6] was less than 100 nM in each case.
`Cc1ccc(NC(=O)c2cc(C(F)(F)F)cnn2)cc1-c1ccnc(-c2cnn(C)c2)c1` [Example 114]: the IC50 in assay [1] is 100 to 500 nM; in assay [2], 100 to 500 nM; in assay [3], less than 100 nM; in assay [4], 100 to 500 nM; in assay [5] it was 100 to 500 nM; in assay [6] it was 100 to 500 nM.
For `CCn1cc(-c2cc(-c3cc(NC(=O)c4cc(C(F)(F)F)cnn4)ccc3C)ccn2)cn1` [Example 115], the IC50 in assay [1], in assay [2], in assay [3], in assay [4], in assay [5] and in assay [6] was 100 to 500 nM each time.
On to `Cc1ccc(NC(=O)c2cc(C(F)(F)F)cnn2)cc1-c1cc(OCCO)nc(-c2cn[nH]c2)c1` [Example 116], for which the IC50 in assay [1], in assay [2], in assay [3], in assay [4], in assay [5] and in assay [6] was less than 100 nM in each case.
For `Cc1ccc(NC(=O)c2cc(C3CC3)cnn2)cc1-c1cc(N[C@H](C)CO)nc(-c2cn[nH]c2)c1` [Example 117], the IC50 in assay [1], in assay [2], in assay [3], in assay [4], in assay [5] and in assay [6] was less than 100 nM each time.
Take `CNc1cc(-c2cc(NC(=O)c3cc(C(F)(F)F)cnn3)ccc2C)cc(-c2ccnc(NC(=O)C3CC3)c2)n1` [Example 118]: the IC50 in assay [1], in assay [2], in assay [3], in assay [4], in assay [5] and in assay [6] was less than 100 nM each time.
Regarding `Cc1ccc(NC(=O)c2cc(C(F)(F)F)cnn2)cc1-c1cc(N[C@H](C)CO)nc(-c2cn[nH]c2C)c1` [Example 120], the IC50 was 100 to 500 nM in assay [1]; 100 to 500 nM in assay [2]; less than 100 nM in assay [3]; less than 100 nM in assay [4]; less than 100 nM in assay [5]; 100 to 500 nM in assay [6].
On to `Cc1ccc(NC(=O)c2cc(C(C)(F)F)cnn2)cc1-c1cc(N[C@H](C)CO)nc(-c2cn[nH]c2)c1` [Example 121], for which the IC50 was less than 100 nM in assay [1]; less than 100 nM in assay [2]; less than 100 nM in assay [3]; less than 100 nM in assay [4]; less than 100 nM in assay [5]; 100 to 500 nM in assay [6].
As for `Cc1ccc(NC(=O)c2cc(C(F)(F)F)cnn2)cc1-c1cc(N[C@H](C)CO)nc(-c2c(C)n[nH]c2C)c1` [Example 122], the IC50 in assay [1] is 100 to 500 nM; in assay [2] it was 100 to 500 nM; in assay [3] it was less than 100 nM; in assay [4], 100 to 500 nM; in assay [5], 100 to 500 nM; in assay [6] it was 500 to 1000 nM.
In the case of `Cc1ccc(NC(=O)c2cc(C(F)(F)F)cnn2)cc1-c1cc(N[C@H](C)CO)cc(-c2cc(NC(=O)C3CC3)ncn2)c1` [Example 123], the IC50 is 100 to 500 nM in assay [1]; less than 100 nM in assay [2]; less than 100 nM in assay [3]; 100 to 500 nM in assay [4]; less than 100 nM in assay [5]; 100 to 500 nM in assay [6].
With `Cc1ccc(NC(=O)c2cc(C(F)(F)F)cnn2)cc1-c1cncc(-c2cc(NC=O)ncn2)c1` [Example 124], the IC50 in assay [1] was 500 to 1000 nM; in assay [2] it was 500 to 1000 nM; in assay [3], less than 100 nM; in assay [4], 100 to 500 nM; in assay [5], less than 100 nM; in assay [6], 500 to 1000 nM.
In the case of `Cc1ccc(NC(=O)c2cc(C(F)(F)F)cnn2)cc1-c1cncc(-c2cc(NC(=O)C(F)(F)F)ncn2)c1` [Example 125], the IC50 in assay [1] is 500 to 1000 nM; in assay [2], 500 to 1000 nM; in assay [3] it was less than 100 nM; in assay [4] it was 500 to 1000 nM; in assay [5] it was less than 100 nM; in assay [6] it was 500 to 1000 nM.
`Cc1ccc(NC(=O)c2cnc(C(F)(F)F)nc2)cc1-c1ccnc(-c2cn[nH]c2)c1` [Example 126]: the IC50 in assay [1] is less than 100 nM; in assay [2] it was 100 to 500 nM; in assay [3] it was 1000 to 10000 nM; in assay [4] it was less than 100 nM; in assay [5] it was 1000 to 10000 nM; in assay [6] it was 100 to 500 nM.
Turning to `CONc1cc(-c2cc(-c3cc(NC(=O)c4cc(C(F)(F)F)cnn4)ccc3C)ccn2)ccn1` [Example 128, N-(3-(2′-(methoxyamino)-[2,4′-bipyridin]-4-yl)-4-methylphenyl)-5-(trifluoromethyl)pyridazine-3-carboxamide], the IC50 is 100 to 500 nM in assay [1]; 500 to 1000 nM in assay [2]; 100 to 500 nM in assay [3]; 100 to 500 nM in assay [4]; 100 to 500 nM in assay [5]; 100 to 500 nM in assay [6].
Take `Cc1ccc(NC(=O)c2cc(C(F)(F)F)cnn2)cc1-c1ccnc(-c2ccnc(NCCO)c2)c1` [Example 129]: the IC50 in assay [1] was less than 100 nM; in assay [2] it was 100 to 500 nM; in assay [3] it was less than 100 nM; in assay [4] it was less than 100 nM; in assay [5], 100 to 500 nM; in assay [6], less than 100 nM.
In the case of `Cc1ccc(NC(=O)c2cc(Br)cnn2)cc1-c1ccnc(-c2ccnc(NC(=O)C3CC3)c2)c1` [Example 130], the IC50 in assay [1] is 500 to 1000 nM; in assay [2] it was 500 to 1000 nM; in assay [3] it was less than 100 nM; in assay [4], 100 to 500 nM; in assay [5], less than 100 nM; in assay [6] it was 1000 to 10000 nM.
With `Cc1ccc(NC(=O)c2cc(C(F)(F)F)cnn2)cc1-c1cc(OCCO)nc(-c2ccnc(NC(=O)C3CC3)c2)c1` [Example 131], the IC50 in assay [1] is less than 100 nM; in assay [2], 100 to 500 nM; in assay [3], less than 100 nM; in assay [4], 100 to 500 nM; in assay [5] it was less than 100 nM; in assay [6], 100 to 500 nM.
